Reference: paper PMC5592639 (ACS combinatorial science, 2016)

How the values were obtained:
Assay type in all cases: cell-based
[1] = system: H460 (human non-small cell lung carcinoma cells); experiment: Cytotoxicity against H460; conditions: NCI-H460
[2] = system: H460TaxR (paclitaxel-resistant human non-small cell lung carcinoma cells); experiment: Cytotoxicity against H460TaxR; conditions: H460/TaxR
[3] = system: normal human fibroblasts NHFB; experiment: Cytotoxicity against normal human fibroblasts; conditions: Fibroblast

## CC(=O)O[C@H]1C(=O)[C@@]2(C)[C@H]([C@H](OC(=O)c3ccccc3)[C@]3(O)C[C@H](OC(=O)[C@H](O)[C@@H](NC(=O)c4ccccc4)c4ccccc4)C(C)=C1C3(C)C)[C@]1(OC(C)=O)CO[C@@H]1C[C@@H]2O [PTX, paclitaxel]
[1]
  EC50: 6 ± 2 nM
[2]
  EC50: 800 ± 400 nM
[3]
  EC50: 50 ± 30 nM
